Measured values from patent US20170291905A1, “ARGININE […] INHIBITORS AND USES THEREOF” (Epizyme, Inc., priority 2014, published 2017).

target: T1, PRMT1 (Homo sapiens, UniProt Q99873); experiment: RKO methylation assay, In Cell Western (ICW) for mono-methyl arginine and DNA content; type: cell-based; settings: RKO cells, 72 hours, mono-methyl arginine signal normalised to DRAQ5, percent activation
T1 construct: host or cells: RKO cells
Excerpt: RKO Methylation Assay RKO adherent cells were purchased from ATCC (American Type Culture Collection), Manassas, Va., USA. DMEM/Glutamax medium, penicillin-streptomycin, heat inactivated fetal bovine serum, 0.05% trypsin and D-PBS were purchased from Life Technologies, Grand Island, N.Y., USA. Odyssey blocking buffer, 800CW goat anti-rabbit IgG (H+L) antibody, and Licor Odyssey infrared scanner were purchased from Licor Biosciences, Lincoln, Nebr., USA. Mono-methyl arginine antibody was purchased from Cell Signaling Technology, Danvers, Mass., USA. Methanol was purchased from VWR, Franklin, Mass., USA. 10% Tween 20 was purchased from KPL, Inc., Gaithersburg, Md., USA. DRAQ5 was purchased from Biostatus Limited, Leicestershire, UK. RKO adherent cells were maintained in growth medium (DMEM/Glutamax medium supplemented with 10% v/v heat inactivated fetal bovine serum and 100 units/mL penicillin-streptomycin) and cultured at 37° C. under 5% CO2. Cell Treatment, in Cell Western (ICW) for Detection of Mono-Methyl Arginine and DNA Content. RKO cells were seeded in assay medium at a concentration of 20,000 cells per mL to a poly-D-lysine coated 384 well culture plate (BD Biosciences 356697) with 50 μL per well. Compound (100 nL) from a 96-well source plate was added directly to 384 well cell plate. Plates were incubated at 37° C., 5% CO2 for 72 hours. After three days of incubation, plates were brought to room temperature outside of the incubator for ten minutes and blotted on paper towels to remove cell media. 50 μL of ice cold 100% methanol was added directly to each well and incubated for 30 min at room temperature. After 30 min, plates were transferred to a Biotek EL406 plate washer and washed 2 times with 100 μL per well of wash buffer (1×PBS). Next 60 μL per well of Odyssey blocking buffer (Odyssey Buffer with 0.1% Tween 20 (v/v)) were added to each plate and incubated 1 hour at room temperature. Blocking buffer was removed and 20 μL per well of primary antibody was added (mono-methyl arginine diluted 1:200 in Odyssey buffer with 0.1% Tween 20 (v/v)) and plates were incubated overnight (16 hours) at 4° C. Plates were washed 5 times with 100 μL per well of wash buffer. Next 20 μL per well of secondary antibody was added (1:200 800CW goat anti-rabbit IgG (H+L) antibody, 1:1000 DRAQ5 (Biostatus limited) in Odyssey buffer with 0.1% Tween 20 (v/v)) and incubated for 1 hour at room temperature. The plates were washed 5 times with 100 μL per well wash buffer then 2 times with 100 μL per well of water. Plates were allowed to dry at room temperature then imaged on the Licor Odyssey machine which measures integrated intensity at 700 nm and 800 nm wavelengths. Both 700 and 800 channels were scanned. […] Each plate included fourteen control wells of DMSO only treatment (minimum activation) as well as fourteen control wells for maximum activation treated with 20 μM of a reference compound. The average of the ratio values for each control type was calculated and used to determine the percent activation for each test well in the plate. Reference compound was serially diluted three-fold in DMSO for a total of nine test concentrations, beginning at 20 μM. Percent activation was determined and EC30 curves were generated using triplicate wells per concentration of compound.

T1 sequence (Q99873 whole entry): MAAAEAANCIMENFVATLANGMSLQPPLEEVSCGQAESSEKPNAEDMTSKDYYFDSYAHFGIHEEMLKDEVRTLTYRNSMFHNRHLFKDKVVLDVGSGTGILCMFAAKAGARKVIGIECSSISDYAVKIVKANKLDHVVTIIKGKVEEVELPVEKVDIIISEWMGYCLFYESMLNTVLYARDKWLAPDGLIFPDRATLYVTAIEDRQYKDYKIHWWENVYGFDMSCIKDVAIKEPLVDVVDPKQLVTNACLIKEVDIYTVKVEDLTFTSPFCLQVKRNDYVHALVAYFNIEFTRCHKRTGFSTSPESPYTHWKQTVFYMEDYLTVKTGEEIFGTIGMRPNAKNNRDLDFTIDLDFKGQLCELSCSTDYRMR

Compound | PRMT1 RGG ICW EC30
CNCCN(C)Cc1cn(C)nc1C1CCC(C)(C)[C@@H](C(=O)NCC(C)C)C1 (some centres unmarked) [compound 25] | >5000 nM
CNCCN(C)Cc1c(C)[nH]nc1[C@H]1CC[C@]2(CC1)CC(C)(C)CO2 [compound 58] | 83.34 nM
CNCCN(C)Cc1c[nH]nc1C1CCC(C)(C)[C@H](COCCCOC)C1 (stereo partly drawn) [compound 30, {2-[({3-[(3R)-3-[(3-methoxypropoxy)methyl]-4,4-dimethylcyclohexyl]-1H-pyrazol-4-yl}methyl)(methyl)amino]ethyl}(methyl)amine] | 209 nM
CNCCN(C)Cc1c[nH]nc1[C@H]1CC[C@]2(CCN(CCC(C)C)C2=O)CC1 [compound 10] | 2001 nM
CNCCN(C)Cc1n[nH]cc1[C@H]1CC[C@]2(CC1)CC(C)(C)CO2 [compound 116] | 154.5 nM
CCOC[C@@H]1CC(c2n[nH]cc2CN(C)CCNC)CCC1(C)C (stereo partly drawn) [compound 31, {2-[({3-[(3R)-3-(ethoxymethyl)-4,4-dimethylcyclohexyl]-1H-pyrazol-4-yl}methyl)(methyl)amino]ethyl}(methyl)amine] | 453.6 nM
CNCCN(C)Cc1ccnn1[C@H]1CC[C@]2(CC1)CC(C)(C)CO2 [compound 50, N1-((1-((5r,8r)-3,3-dimethyl-1-oxaspiro[4.5]decan-8-yl)-1H-pyrazol-5-yl)methyl)-N1,N2-dimethylethane-1,2-diamine] | 321.2 nM
CNCCN(C)Cc1c[nH]nc1C1CCC2(CCC(OC)CC2)CC1 (centres unmarked) [compound 9, N1-((3-(9-methoxyspiro[5.5]undecan-3-yl)-1H-pyrazol-4-yl)methyl)-N1,N2-dimethylethane-1,2-diamine] | 12.45 nM
CNCCN(C)Cc1c[nH]nc1C1CC(COCC2CC2)CC(COCC2CC2)C1 (centres unmarked) [compound 2] | >5000 nM
CNCCN(C)Cc1c[nH]nc1[C@H]1CC[C@@]2(CCCOC2)CC1 [compound 5, N1-((3-((6r,9r)-2-oxaspiro[5.5]undecan-9-yl)-1H-pyrazol-4-yl)methyl)-N1,N2-dimethylethane-1,2-diamine] | 14.65 nM
CNCCN(C)Cc1nn[nH]c1[C@H]1CC[C@@]2(CC1)CC(C)(C)CO2 [compound 67] | 33.9 nM
Cc1[nH]nc(C2CCC3(CC2)CC(C)(C)CO3)c1CN(C)CCN (centres unmarked) [compound 59] | 193.1 nM
CNCCN(C)Cc1c(C)[nH]nc1[C@H]1CC[C@@]2(CC1)CC(C)(C)CO2 [compound 57] | 40.32 nM
CNCCN(C)Cc1cncn1[C@H]1CC[C@@]2(CC1)CC(C)(C)CO2 [compound 76] | 389.4 nM
CCC1(CC)C[C@]2(CC[C@@H](c3n[nH]cc3CN(C)CCNC)CC2)OC1=O [compound 34, (5r,8r)-3,3-diethyl-8-(4-((methyl(2-(methylamino)ethyl)amino)methyl)-1H-pyrazol-3-yl)-1-oxaspiro[4.5]decan-2-one] | 65.46 nM
CNCCN(C)Cc1nn(C)cc1[C@H]1CC[C@]2(CC1)CC(C)(C)CO2 [compound 103] | 597.4 nM

Compound | PRMT1 RGG ICW EC30
CNCCN(C)Cc1ncsc1[C@H]1CC[C@@]2(CC1)CC(C)(C)CO2 [compound 83] | 57.96 nM
CN(CCN)Cc1c[nH]nc1[C@H]1CC[C@]2(CC1)CC(C)(C)CO2 [compound 106] | 45.27 nM
CNCCN(C)Cc1c(C)noc1[C@H]1CC[C@]2(CC1)CC(C)(C)CO2 [compound 114] | >10000 nM
CNCCN(C)Cc1c[nH]nc1C1CCC(C)(C)[C@H](COCCOC)C1 (stereo partly drawn) [compound 35, {2-[({3-[(3R)-3-[(2-methoxyethoxy)methyl]-4,4-dimethylcyclohexyl]-1H-pyrazol-4-yl}methyl)(methyl)amino]ethyl}(methyl)amine] | 330.1 nM
CNCCN(C)Cc1c[nH]nc1[C@H]1CC[C@@]2(CC1)COC(C)(C)C2 [compound 126, N1-((3-((5r,8r)-3,3-dimethyl-2-oxaspiro[4.5]decan-8-yl)-1H-pyrazol-4-yl)methyl)-N1,N2-dimethylethane-1,2-diamine] | 15.26 nM
Cc1[nH]nc([C@H]2CC[C@]3(CC2)CC(C)(C)CO3)c1CN(C)CCN [compound 52, N1-((3-((5r,8r)-3,3-dimethyl-1-oxaspiro[4.5]decan-8-yl)-5-methyl-1H-pyrazol-4-yl)methyl)-N1-methylethane-1,2-diamine] | 373.6 nM
CNCCN(C)Cc1sc(C)nc1[C@H]1CC[C@]2(CC1)CC(C)(C)CO2 [compound 100] | 75.86 nM
CNCCN(C)Cc1c(Cl)ncn1[C@H]1CC[C@]2(CC1)CC(C)(C)CO2 [compound 97] | >10000 nM
CCOCC1(COCC)CCC(c2n[nH]cc2CN(C)CCN(C)C)CC1 [compound 121] | 117.5 nM
CNCCN(C)Cc1c[nH]nc1C1CCC2(CC1)CC(C)(C)OC2=O (centres unmarked) [compound 125] | 14.88 nM
CNCCN(C)Cc1c[nH]nc1[C@H]1CC[C@H](COCC(F)(F)F)CC1 [compound 24, N1,N2-dimethyl-N1-((3-((1r,4r)-4-((2,2,2-trifluoroethoxy)methyl)cyclohexyl)-1H-pyrazol-4-yl)methyl)ethane-1,2-diamine] | 161.6 nM
CNCCN(C)Cc1c[nH]nc1[C@H]1CC[C@@]2(CCN(CCC(C)C)C2=O)CC1 [compound 11, (5r,8r)-2-isopentyl-8-(4-((methyl(2-(methylamino)ethyl)amino)methyl)-1H-pyrazol-3-yl)-2-azaspiro[4.5]decan-1-one] | 34.17 nM
CNCCN(C)Cc1c[nH]nc1C1CCC(C)(C)[C@H](OCC(C)C)C1 (stereo partly drawn) [compound 20, ({3-[(3R)-4,4-dimethyl-3-(2-methylpropoxy)cyclohexyl]-1H-pyrazol-4-yl}methyl)(methyl)[2-(methylamino)ethyl]amine] | 204.3 nM
CNCCN(C)Cc1sc(C)nc1[C@H]1CC[C@@]2(CC1)CC(C)(C)CO2 [compound 78] | 29.59 nM
CNCCN(C)Cc1n[nH]cc1[C@H]1CC[C@@]2(CC1)CC(C)(C)CO2 [compound 115] | 20.34 nM
CNCCN(C)Cc1c[nH]nc1C1CCC(COCC(C)C)(COCC(C)C)CC1 [compound 6] | 949.3 nM
